Legend:
[1] = target: T1, HiBit-BRG1 fusion protein (Homo sapiens, UniProt P51532); assay: HiBiT-BRG1 cell-based degradation assay (Nano-Glo HiBiT Lytic Detection, 24 h); conditions: HeLa cell line expressing HiBit-BRG1 and LgBit; for Dmax: read-out: BRG1 HiBit Degradation Maximum (%); for DC50: read-out: BRMG1 HiBit Degradation IC50
T1 construct: expressed in transfected cells
In short: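 HeLa cells stably expressing HiBiT-BRG1 plus LgBit, 5000/well, treated 24 h, then lysed with Nano-Glo HiBiT lytic reagent and luminescence read. % degradation normalised between DMSO (high control) and 2 μM reference BRM/BRG1 degrader (low control).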

[2] = target: T2, HiBit-BRM fusion protein (Homo sapiens, UniProt P51531); assay: HiBiT-BRM cell-based degradation assay (Nano-Glo HiBiT Lytic Detection, 24 h); conditions: HeLa cell line expressing HiBiT-BRM; for DC50: read-out: BRM HiBit Degradation IC50
T2 construct: expressed in transfected cells
In short: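 HeLa cells stably expressing HiBiT-BRM were dosed with compounds (10-point 3-fold dilutions, 30 μM final top dose, duplicate) for 24 h. HiBiT signal was read by lytic LgBiT complementation luminescence. Percent degradation was normalised to DMSO (high control) and 2 μM of a reference BRM/BRG1 degrader (low control).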

T1 sequence (P51532 whole entry, the tested form may be a part): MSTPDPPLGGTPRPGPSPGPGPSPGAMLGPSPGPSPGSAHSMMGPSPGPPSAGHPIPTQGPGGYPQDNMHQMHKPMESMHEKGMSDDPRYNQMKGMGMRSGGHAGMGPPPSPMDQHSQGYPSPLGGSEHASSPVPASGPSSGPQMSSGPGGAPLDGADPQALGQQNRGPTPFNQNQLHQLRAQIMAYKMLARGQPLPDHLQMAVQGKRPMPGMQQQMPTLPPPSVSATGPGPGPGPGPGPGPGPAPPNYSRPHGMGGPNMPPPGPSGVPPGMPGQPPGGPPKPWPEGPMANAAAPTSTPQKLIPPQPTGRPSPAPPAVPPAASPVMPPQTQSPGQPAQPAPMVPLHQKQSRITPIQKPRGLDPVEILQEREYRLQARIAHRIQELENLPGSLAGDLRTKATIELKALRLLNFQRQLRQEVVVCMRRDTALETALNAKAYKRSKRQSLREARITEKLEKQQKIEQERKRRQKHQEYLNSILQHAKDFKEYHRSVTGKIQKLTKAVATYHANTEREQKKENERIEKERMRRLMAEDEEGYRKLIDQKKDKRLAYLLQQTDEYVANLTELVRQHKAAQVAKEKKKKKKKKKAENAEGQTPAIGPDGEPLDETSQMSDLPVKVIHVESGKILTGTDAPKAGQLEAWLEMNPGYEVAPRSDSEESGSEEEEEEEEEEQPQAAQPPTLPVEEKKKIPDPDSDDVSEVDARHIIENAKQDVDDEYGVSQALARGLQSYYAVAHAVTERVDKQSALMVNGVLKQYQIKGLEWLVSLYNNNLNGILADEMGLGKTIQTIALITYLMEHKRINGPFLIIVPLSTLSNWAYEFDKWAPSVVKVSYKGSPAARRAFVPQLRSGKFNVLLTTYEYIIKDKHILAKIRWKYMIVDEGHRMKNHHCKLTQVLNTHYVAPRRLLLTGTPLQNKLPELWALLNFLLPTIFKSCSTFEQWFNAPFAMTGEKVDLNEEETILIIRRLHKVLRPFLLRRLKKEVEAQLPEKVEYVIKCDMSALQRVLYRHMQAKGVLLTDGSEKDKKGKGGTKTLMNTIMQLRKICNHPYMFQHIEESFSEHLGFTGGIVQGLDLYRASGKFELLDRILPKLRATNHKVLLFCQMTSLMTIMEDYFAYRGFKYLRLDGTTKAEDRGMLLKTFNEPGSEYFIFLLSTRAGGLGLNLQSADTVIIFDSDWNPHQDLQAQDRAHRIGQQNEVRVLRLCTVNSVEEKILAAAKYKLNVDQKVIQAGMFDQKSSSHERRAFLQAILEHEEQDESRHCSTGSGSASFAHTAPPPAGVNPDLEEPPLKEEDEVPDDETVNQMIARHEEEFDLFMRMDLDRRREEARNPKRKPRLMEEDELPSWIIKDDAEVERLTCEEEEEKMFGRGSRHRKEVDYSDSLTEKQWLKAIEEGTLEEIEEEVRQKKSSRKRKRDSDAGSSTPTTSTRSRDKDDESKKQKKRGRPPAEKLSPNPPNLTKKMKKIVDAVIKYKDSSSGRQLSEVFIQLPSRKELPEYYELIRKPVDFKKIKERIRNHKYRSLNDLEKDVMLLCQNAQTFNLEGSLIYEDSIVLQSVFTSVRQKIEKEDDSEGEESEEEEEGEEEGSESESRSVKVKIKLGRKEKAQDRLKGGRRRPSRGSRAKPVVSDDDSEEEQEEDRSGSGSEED
T2 sequence (P51531 whole entry, the tested form may be a part): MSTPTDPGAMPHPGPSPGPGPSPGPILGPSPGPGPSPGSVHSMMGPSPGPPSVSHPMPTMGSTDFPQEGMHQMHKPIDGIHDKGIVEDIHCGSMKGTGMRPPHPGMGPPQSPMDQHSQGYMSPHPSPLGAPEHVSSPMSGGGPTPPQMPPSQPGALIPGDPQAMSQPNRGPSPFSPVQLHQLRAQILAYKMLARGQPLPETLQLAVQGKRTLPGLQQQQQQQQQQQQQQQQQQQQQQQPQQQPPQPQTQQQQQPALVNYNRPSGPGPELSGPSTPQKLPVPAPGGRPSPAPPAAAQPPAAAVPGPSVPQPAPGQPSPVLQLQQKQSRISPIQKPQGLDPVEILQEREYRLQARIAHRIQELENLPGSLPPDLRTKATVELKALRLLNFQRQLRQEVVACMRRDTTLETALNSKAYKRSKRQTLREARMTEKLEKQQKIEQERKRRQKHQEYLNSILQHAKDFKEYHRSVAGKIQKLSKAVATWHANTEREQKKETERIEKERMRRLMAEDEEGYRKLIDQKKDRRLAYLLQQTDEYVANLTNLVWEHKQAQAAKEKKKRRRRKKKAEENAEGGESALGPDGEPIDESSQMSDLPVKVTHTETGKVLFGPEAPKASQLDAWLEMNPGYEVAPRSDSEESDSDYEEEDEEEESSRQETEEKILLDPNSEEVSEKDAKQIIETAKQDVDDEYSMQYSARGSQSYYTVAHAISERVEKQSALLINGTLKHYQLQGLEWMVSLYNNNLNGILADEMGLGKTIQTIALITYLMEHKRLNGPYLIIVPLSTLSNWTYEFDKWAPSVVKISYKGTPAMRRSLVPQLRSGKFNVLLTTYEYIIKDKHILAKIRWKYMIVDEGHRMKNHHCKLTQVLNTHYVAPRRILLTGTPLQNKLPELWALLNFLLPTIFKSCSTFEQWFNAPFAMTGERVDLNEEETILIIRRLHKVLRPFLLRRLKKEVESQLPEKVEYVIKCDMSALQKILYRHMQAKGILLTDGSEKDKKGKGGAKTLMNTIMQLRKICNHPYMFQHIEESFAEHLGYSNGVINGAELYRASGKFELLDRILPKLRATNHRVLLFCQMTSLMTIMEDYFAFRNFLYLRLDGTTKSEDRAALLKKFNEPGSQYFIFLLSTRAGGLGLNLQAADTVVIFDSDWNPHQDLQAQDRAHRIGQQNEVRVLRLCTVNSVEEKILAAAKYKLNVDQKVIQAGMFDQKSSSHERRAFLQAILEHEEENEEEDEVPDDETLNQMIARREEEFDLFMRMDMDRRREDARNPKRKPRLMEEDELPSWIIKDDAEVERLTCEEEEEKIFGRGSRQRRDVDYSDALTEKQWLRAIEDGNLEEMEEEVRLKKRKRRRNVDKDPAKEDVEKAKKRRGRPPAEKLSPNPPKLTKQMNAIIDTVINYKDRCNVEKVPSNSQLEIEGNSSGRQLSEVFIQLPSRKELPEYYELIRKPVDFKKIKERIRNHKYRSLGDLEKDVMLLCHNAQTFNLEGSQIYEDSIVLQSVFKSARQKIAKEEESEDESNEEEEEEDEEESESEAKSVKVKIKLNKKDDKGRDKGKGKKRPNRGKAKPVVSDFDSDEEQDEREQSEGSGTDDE

Structure (SMILES) | Dmax [1] | DC50 [1] | DC50 [2] | BRM HiBit Degradation Maximum (%) [2]
Cc1ncsc1-c1ccc([C@H](C)NC(=O)[C@@H]2C[C@@H](O)CN2C(=O)[C@@H](c2cc(OCCN(C)CCC(=O)N3CC(c4c[nH]c5nnc(-c6ccccc6O)cc45)C3)no2)C(C)C)cc1 (racemic) [Compound 221, (2S,4R)-4-hydroxy-1-((R)-2-(3-(2-((3-(3-(3-(2-hydroxyphenyl)-7H-pyrrolo[2,3-c]pyridazin-5-yl)azetidin-1-yl)-3-oxopropyl)(methyl)amino)ethoxy)isoxazol-5-yl)-3-methylbutanoyl)-N-((S)-1-(4-(4-methylthiazol-5-yl)phenyl)ethyl)pyrrolidine-2-carboxamide] | < 50% | – | > 100 nM | B (“B” indicates maximum degradation ≥ 50%)
Cc1ncsc1-c1ccc([C@H](C)NC(=O)[C@@H]2C[C@@H](O)CN2C(=O)[C@@H](c2cc(OCCN(C)Cc3cc4cc(-c5ccccc5O)nnc4[nH]3)no2)C(C)C)cc1 (racemic) [Compound 222, (2S,4R)-4-hydroxy-1-((R)-2-(3-(2-(((3-(2-hydroxyphenyl)-7H-pyrrolo[2,3-c]pyridazin-6-yl)methyl)(methyl)amino)ethoxy)isoxazol-5-yl)-3-methylbutanoyl)-N-((S)-1-(4-(4-methylthiazol-5-yl)phenyl)ethyl)pyrrolidine-2-carboxamide] | < 50% | – | > 10 nM | B (“B” indicates maximum degradation ≥ 50%)
Cc1ncsc1-c1ccc([C@H](C)NC(=O)[C@@H]2C[C@@H](O)CN2C(=O)[C@@H](c2cc(OCCNC3CC4(C3)CC(c3cc5cc(-c6ccccc6O)nnc5[nH]3)C4)no2)C(C)C)cc1 (mixture of isomers) [Compound 223, (2S,4R)-4-hydroxy-1-((R)-2-(3-(2-((6-(3-(2-hydroxyphenyl)-7H-pyrrolo[2,3-c]pyridazin-6-yl)spiro[3.3]heptan-2-yl)amino)ethoxy)isoxazol-5-yl)-3-methylbutanoyl)-N-((S)-1-(4-(4-methylthiazol-5-yl)phenyl)ethyl)pyrrolidine-2-carboxamide] | > 75% | > 100 nM | > 10 nM | A (“A” indicates maximum degradation ≥ 75%)
Cc1ncsc1-c1ccc([C@H](C)NC(=O)[C@@H]2C[C@@H](O)CN2C(=O)[C@@H](c2cc(OCCN3C[C@@H]4[C@H](C3)[C@H]4c3cc4cc(-c5cc(F)ccc5O)nnc4[nH]3)no2)C(C)C)cc1 (racemic) [Compound 224, (2S,4R)-1-((R)-2-(3-(2-((1R,5S,6R)-6-(3-(5-fluoro-2-hydroxyphenyl)-7H-pyrrolo[2,3-c]pyridazin-6-yl)-3-azabicyclo[3.1.0]hexan-3-yl)ethoxy)isoxazol-5-yl)-3-methylbutanoyl)-4-hydroxy-N-((S)-1-(4-(4-methylthiazol-5-yl)phenyl)ethyl)pyrrolidine-2-carboxamide] | > 50% | > 1000 nM | > 10 nM | A (“A” indicates maximum degradation ≥ 75%)
Cc1ncsc1-c1ccc([C@H](C)NC(=O)[C@@H]2C[C@@H](O)CN2C(=O)[C@@H](c2cc(OCCNCCC(=O)N3CC(c4c[nH]c5nnc(-c6ccccc6O)cc45)C3)no2)C(C)C)cc1 (racemic) [Compound 230, (2S,4R)-4-hydroxy-1-((R)-2-(3-(2-((3-(3-(3-(2-hydroxyphenyl)-7H-pyrrolo[2,3-c]pyridazin-5-yl)azetidin-1-yl)-3-oxopropyl)amino)ethoxy)isoxazol-5-yl)-3-methylbutanoyl)-N-((S)-1-(4-(4-methylthiazol-5-yl)phenyl)ethyl)pyrrolidine-2-carboxamide] | < 50% | – | > 1000 nM | B (“B” indicates maximum degradation ≥ 50%)
Cc1ncsc1-c1ccc([C@H](C)NC(=O)[C@@H]2C[C@@H](O)CN2C(=O)[C@@H](c2cc(OCCN3CCN(c4cc5cc(-c6ccccc6O)nnc5[nH]4)CC3)no2)C(C)C)cc1 (racemic) [Compound 235, (2S,4R)-4-hydroxy-1-((R)-2-(3-(2-(4-(3-(2-hydroxyphenyl)-7H-pyrrolo[2,3-c]pyridazin-6-yl)piperazin-1-yl)ethoxy)isoxazol-5-yl)-3-methylbutanoyl)-N-((S)-1-(4-(4-methylthiazol-5-yl)phenyl)ethyl)pyrrolidine-2-carboxamide] | > 75% | > 10 nM | > 10 nM | A (“A” indicates maximum degradation ≥ 75%)
Cc1ncsc1-c1ccc([C@H](C)NC(=O)[C@@H]2C[C@@H](O)CN2C(=O)C(c2cc(N3CCC(C(=O)N4CC(c5c[nH]c6nnc(-c7ccccc7O)cc56)C4)CC3)no2)C(C)C)cc1 (mixture of isomers) [Compound 236, (2S,4R)-4-hydroxy-1-((R)-2-(3-(4-(3-(3-(2-hydroxyphenyl)-7H-pyrrolo[2,3-c]pyridazin-5-yl)azetidine-1-carbonyl)piperidin-1-yl)isoxazol-5-yl)-3-methylbutanoyl)-N-((S)-1-(4-(4-methylthiazol-5-yl)phenyl)ethyl)pyrrolidine-2-carboxamide] | < 50% | – | – | C (“C” indicates maximum degradation < 50%)
Cc1ncsc1-c1ccc([C@H](C)NC(=O)[C@@H]2C[C@@H](O)CN2C(=O)[C@@H](c2cc(OCCN3CC(c4[nH]c5nnc(-c6ccccc6O)cc5c4Cl)C3)no2)C(C)C)cc1 (racemic) [Compound 238, (2S,4R)-1-[(2R)-2-[3-(2-{3-[5-chloro-3-(2-hydroxyphenyl)-7H-pyrrolo[2,3-c]pyridazin-6-yl]azetidin-1-yl}ethoxy)-1,2-oxazol-5-yl]-3-methylbutanoyl]-4-hydroxy-N-[(1S)-1-[4-(4-methyl-1,3-thiazol-5-yl)phenyl]ethyl]pyrrolidine-2-carboxamide] | < 50% | – | > 10 nM | A (“A” indicates maximum degradation ≥ 75%)

Continued, in another order:

Dmax [1] | DC50 [1] | DC50 [2] | Structure (SMILES) | BRM HiBit Degradation Maximum (%) [2]
> 75% | > 10 nM | < 10 nM | Cc1ncsc1-c1ccc([C@H](C)NC(=O)[C@@H]2C[C@@H](O)CN2C(=O)[C@@H](c2cc(OCCNC34CC(c5[nH]c6nnc(-c7ccccc7O)cc6c5C)(C3)C4)no2)C(C)C)cc1 (racemic) [Compound 220, (2S,4R)-4-hydroxy-1-((R)-2-(3-(2-((3-(3-(2-hydroxyphenyl)-5-methyl-7H-pyrrolo[2,3-c]pyridazin-6-yl)bicyclo[1.1.1]pentan-1-yl)amino)ethoxy)isoxazol-5-yl)-3-methylbutanoyl)-N-((S)-1-(4-(4-methylthiazol-5-yl)phenyl)ethyl)pyrrolidine-2-carboxamide] | A (“A” indicates maximum degradation ≥ 75%)
< 50% | – | > 10 nM | Cc1ncsc1-c1ccc([C@H](C)NC(=O)[C@@H]2C[C@@H](O)CN2C(=O)[C@@H](c2cc(OCCN3C[C@@H]4[C@H](C3)[C@H]4c3cc4cc(-c5cc(F)cc(Cl)c5O)nnc4[nH]3)no2)C(C)C)cc1 (racemic) [Compound 225, (2S,4R)-1-((R)-2-(3-(2-((1R,5S,6R)-6-(3-(3-chloro-5-fluoro-2-hydroxyphenyl)-7H-pyrrolo[2,3-c]pyridazin-6-yl)-3-azabicyclo[3.1.0]hexan-3-yl)ethoxy)isoxazol-5-yl)-3-methylbutanoyl)-4-hydroxy-N-((S)-1-(4-(4-methylthiazol-5-yl)phenyl)ethyl)pyrrolidine-2-carboxamide] | A (“A” indicates maximum degradation ≥ 75%)
> 75% | > 100 nM | > 100 nM | Cc1ncsc1-c1ccc([C@H](C)NC(=O)[C@@H]2C[C@@H](O)CN2C(=O)[C@@H](c2cc(OCCN3CC4(C3)CN(c3cc5cc(-c6ccccc6O)nnc5[nH]3)C4)no2)C(C)C)cc1 (racemic) [Compound 226, (2S,4R)-4-hydroxy-1-[(2R)-2-[3-(2-{6-[3-(2-hydroxyphenyl)-7H-pyrrolo[2,3-c]pyridazin-6-yl]-2,6-diazaspiro[3.3]heptan-2-yl}ethoxy)-1,2-oxazol-5-yl]-3-methylbutanoyl]-N-[(1S)-1-[4-(4-methyl-1,3-thiazol-5-yl)phenyl]ethyl]pyrrolidine-2-carboxamide] | A (“A” indicates maximum degradation ≥ 75%)
< 50% | – | > 1000 nM | Cc1ncsc1-c1ccc([C@H](C)NC(=O)[C@@H]2C[C@@H](O)CN2C(=O)[C@@H](c2cc(OCCCN3CC(c4[nH]c5nnc(-c6ccccc6O)cc5c4C)C3)no2)C(C)C)cc1 (racemic) [Compound 229, (2S,4R)-4-hydroxy-1-((R)-2-(3-(3-(3-(3-(2-hydroxyphenyl)-5-methyl-7H-pyrrolo[2,3-c]pyridazin-6-yl)azetidin-1-yl)propoxy)isoxazol-5-yl)-3-methylbutanoyl)-N-((S)-1-(4-(4-methylthiazol-5-yl)phenyl)ethyl)pyrrolidine-2-carboxamide] | A (“A” indicates maximum degradation ≥ 75%)
< 50% | – | > 100 nM | Cc1ncsc1-c1ccc([C@H](C)NC(=O)[C@@H]2C[C@@H](O)CN2C(=O)C(c2cc(N3CCC(C(=O)N4CC(c5c[nH]c6nnc(-c7ccccc7O)cc56)C4)CC3)no2)C(C)C)cc1 (mixture of isomers) [Compound 231, (2S,4R)-4-hydroxy-1-((S)-2-(3-(4-(3-(3-(2-hydroxyphenyl)-7H-pyrrolo[2,3-c]pyridazin-5-yl)azetidine-1-carbonyl)piperidin-1-yl)isoxazol-5-yl)-3-methylbutanoyl)-N-((S)-1-(4-(4-methylthiazol-5-yl)phenyl)ethyl)pyrrolidine-2-carboxamide] | A (“A” indicates maximum degradation ≥ 75%)
